Values joined by “and” are separate entries in the source; they are usually repeats but may differ in a detail not shown here. Identical values can stand only once.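 Cultured in 96-well plates, cells were exposed to test compound for 48 hours across five concentrations. The concentration for 50% growth inhibition is given as GI50. TGI denotes the concentration required for complete inhibition of growth.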 Bounds are passed on as bounds.

Among the test systems are A498 renal; ACHN renal; HS 578T breast; MDA-MB-435; NCI/ADR-RES ovarian; SF-268 CNS; SK-MEL-28 melanoma; T-47D breast.
Assay in all cases: NCI anticancer screen, dose series, 48 h

Take `Nc1ccn([C@@H]2S[C@H](CO)[C@@H](O)[C@@H]2F)c(=O)n1`: the GI50 was 0.0709 µM in the assay on A498 renal; 0.0271 µM with ACHN renal; greater than 100 µM in the assay with HS 578T breast; 0.18 µM in the assay with MDA-MB-435; 0.0325 µM with NCI/ADR-RES ovarian; 0.26 µM in the assay on SF-268 CNS. Moreover, the GI50 in the assay with SK-MEL-28 melanoma was greater than 100 µM; with T-47D breast, 1.35 µM. In addition, the TGI with HS 578T breast, with MDA-MB-435, with NCI/ADR-RES ovarian, in the assay on SF-268 CNS, in the assay on SK-MEL-28 melanoma and with T-47D breast was greater than 100 µM in each case.

Turning to `CCOC(=O)C1=CSC2=NC3=C(CCC/C3=C\c3cc(OC)c(OC)c(OC)c3)C(c3cc(OC)c(OC)c(OC)c3)N12` (centres undefined), in the assay with HS 578T breast, the GI50 was 2.47 µM and the TGI was greater than 100 µM. In the assay on T-47D breast, the GI50 was 3.83 µM and the TGI is greater than 100 µM.

For the molecule `O=CC(O)C(O)C(OC1OC(CO)C(O)C(O)C1O)C(O)CO` (centres undefined) (tested in a mixture with another compound), the TGI with A498 renal, in the assay on ACHN renal, with HS 578T breast, in the assay on MDA-MB-435, with NCI/ADR-RES ovarian and with SF-268 CNS was greater than 100 µM each time. Besides, the TGI with SK-MEL-28 melanoma and in the assay with T-47D breast was greater than 100 µM each time.

As for `C=CC[PH+](c1ccccc1)c1ccccc1.C=CC[PH+](c1ccccc1)c1ccccc1.[Pt+2].[S-]c1ncccn1.[S-]c1ncccn1`, the GI50 in the assay on A498 renal was 11.5 µM; in the assay with ACHN renal, 2.14 µM; with HS 578T breast, 23 µM; with MDA-MB-435, 16.3 µM; in the assay with NCI/ADR-RES ovarian, 22.9 µM; in the assay on SF-268 CNS it was 25.9 µM. Besides, the figures for the GI50 in the assay with SK-MEL-28 melanoma and in the assay on T-47D breast were 16.4 µM and 3.71 µM, respectively. The TGI in the assay with A498 renal is greater than 100 µM; with ACHN renal it was 5.31 µM; in the assay on HS 578T breast it was greater than 100 µM; in the assay on MDA-MB-435 it was 33.8 µM; in the assay with NCI/ADR-RES ovarian it was greater than 100 µM; in the assay with SF-268 CNS it was greater than 100 µM. For the same molecule, the TGI in the assay on SK-MEL-28 melanoma is 44.5 µM; in the assay on T-47D breast, 87.2 µM.

On to `O=C1c2ccccc2-c2c1c1ccc([N+](=O)[O-])cc1c(=O)n2CCCCl`, for which the GI50 is 4.29 µM in the assay on ACHN renal; 31.7 µM in the assay with MDA-MB-435; 24.1 µM in the assay on NCI/ADR-RES ovarian; 23.5 µM in the assay with SF-268 CNS; 17 µM with SK-MEL-28 melanoma. In addition, the TGI in the assay with ACHN renal, in the assay with MDA-MB-435, in the assay on NCI/ADR-RES ovarian, with SF-268 CNS and with SK-MEL-28 melanoma was greater than 100 µM throughout.

In the case of `CCN(CC)Cc1cc(Nc2cc(C(F)(F)F)c(C#N)c3nc4ccccc4n23)ccc1O`, the GI50 in the assay on A498 renal is 1.44 µM; in the assay with ACHN renal, 2.24 µM; in the assay with HS 578T breast, 2.39 µM; in the assay on MDA-MB-435, 2.29 µM; in the assay with NCI/ADR-RES ovarian it was 2.64 µM; in the assay on SF-268 CNS, 2.51 µM. Besides, the GI50 with SK-MEL-28 melanoma was 2.69 µM; in the assay on T-47D breast, 0.452 µM. Besides, the TGI in the assay on A498 renal was found to be 5.85 µM; in the assay with ACHN renal, 10.3 µM; with HS 578T breast it was 12.1 µM; in the assay with MDA-MB-435, 13.5 µM; with NCI/ADR-RES ovarian, 15.9 µM; with SF-268 CNS it was 18.3 µM. Moreover, the results for the TGI with SK-MEL-28 melanoma and in the assay on T-47D breast were 17.4 µM and 3.65 µM, respectively.

Take `Oc1c(I)cc(Cl)c2cccnc12`: the GI50 in the assay on ACHN renal is 3.52 µM and 3.5 µM; in the assay with HS 578T breast, 7.78 µM and 8.12 µM; in the assay with MDA-MB-435, 4.2 µM and 32.8 µM; in the assay on NCI/ADR-RES ovarian, 3.21 µM and 4.12 µM; with SF-268 CNS, 3.86 µM and 6.22 µM; in the assay on SK-MEL-28 melanoma it was 3.75 µM and 6.69 µM. For the same molecule, the GI50 in the assay with T-47D breast is 4.16 µM and 8.7 µM. Also, the TGI with ACHN renal is 21.7 µM and 23.7 µM; in the assay on HS 578T breast it was > 100 µM and 57.7 µM; in the assay with MDA-MB-435 it was greater than 100 µM; in the assay with NCI/ADR-RES ovarian it was 36 µM and 45.7 µM; with SF-268 CNS, greater than 100 µM; in the assay on SK-MEL-28 melanoma it was greater than 100 µM. Further, in the assay with T-47D breast, the TGI is 28.7 µM and > 100 µM.

As for `CC1=C(C(=O)CC(=O)C(=O)Nc2ccccc2C)Sc2ccccc2N1`, the TGI in the assay on A498 renal, with ACHN renal, in the assay on SF-268 CNS and in the assay with SK-MEL-28 melanoma was greater than 100 µM throughout.

With `Cc1ccc(-c2nc(C(Cl)Cl)nc3cc(C)nn23)cc1`, the GI50 with A498 renal was 1.75 µM; in the assay on ACHN renal, 0.783 µM; with NCI/ADR-RES ovarian, 1.18 µM; in the assay on SF-268 CNS, 2.69 µM; in the assay on T-47D breast it was 2.86 µM. Further, the TGI with A498 renal is 4.7 µM; with ACHN renal, 3.6 µM; in the assay on NCI/ADR-RES ovarian it was 5.73 µM; with SF-268 CNS, greater than 100 µM; in the assay on T-47D breast, greater than 100 µM.

As to `COc1cc2c3c(n(CCCN4CCSCC4)c(=O)c2cc1OC)-c1cc2c(cc1C3=O)OCO2`, the GI50 with ACHN renal was 58.6 µM; with HS 578T breast it was 71.7 µM; in the assay with MDA-MB-435 it was greater than 100 µM; with NCI/ADR-RES ovarian, greater than 100 µM; in the assay on SF-268 CNS it was 28.2 µM; in the assay with SK-MEL-28 melanoma, greater than 100 µM. Further, the GI50 with T-47D breast was greater than 100 µM. Further, the TGI in the assay on ACHN renal, with HS 578T breast, in the assay with MDA-MB-435, with NCI/ADR-RES ovarian, in the assay on SF-268 CNS and in the assay on SK-MEL-28 melanoma was greater than 100 µM each time. In the assay with T-47D breast, this molecule gave a TGI greater than 100 µM.

For the molecule `Nc1c(C(=O)Nc2ccccn2)sc2nc3c(cc12)CCCCCC3`, the GI50 with ACHN renal was 2.41 µM; in the assay with HS 578T breast, 0.935 µM; in the assay on MDA-MB-435, 0.143 µM; with NCI/ADR-RES ovarian, 0.57 µM; with SF-268 CNS, 2.48 µM; with SK-MEL-28 melanoma it was 1.63 µM. Also, the GI50 in the assay with T-47D breast was 2.09 µM. Besides, the TGI in the assay on ACHN renal came to 10.9 µM; in the assay on HS 578T breast, 12.4 µM; in the assay with MDA-MB-435, 0.509 µM; with NCI/ADR-RES ovarian, 41.4 µM; in the assay on SF-268 CNS, 22.6 µM; in the assay on SK-MEL-28 melanoma, 19.6 µM. The same molecule showed a TGI with T-47D breast of 34.6 µM.

(Values after PubChem BioAssay (NCI).)
